Experimental data from US8853264B2, “Use of lignan compounds for treating or preventing inflammatory disease” (Newtree Industry Co., Ltd., priority 2005, dated 2014).

Experiments:
[1] = system: CD4 T cells; assay: T cell proliferation by MTT assay; type: cell-based, mouse; conditions: antibody (CD3 & CD28) stimulation; macelignan 0.01-100 μg/ml
Description: In order to investigate how macelignan directly affects T cells, the cells were stimulated and treated with macelignan at the same time. Wild type and OT-II transgenic mouse CD4 T cells, and antigen presenting cells were used (T cell receptor of CD4 T cells of OT-II transgenic mouse cells is specific for OVA peptide323-339). Wild type CD4 T cells were stimulated with anti-CD3 and anti-CD28 antibodies (BD Pharmigen, San Diego, Calif.), and OT-II transgenic CD4 T cells were stimulated with OVA peptide (Baylor College of Medicine Protein Co-facility). The effect of macelignan was determined by the degree of proliferation of the T cells by MTT assay and by the level of cytokine production. After culturing for 4 days, the level of cytokine production was measured from the supernatant by ELISA. MTT assay was performed using cell proliferation assay kit I (Roche). Cytokines IL-4, IL-17 and IFN-g were detected. ELISA was performed using primary antibody, secondary antibody, streptavidin-alkaline phosphatase (BD Pharmigen) and phosphatase substrate (Sigma-Aldrich, St. Louis, Mo.) according to the manufacturer's instructions.

[2] = Clinical visual evaluation of skin lesion, atopic dermatitis model; type: in vivo, NC/Nga mice
Description: In order to induce atopic dermatitis, 100 mg of mite antigen cream was applied on the ear, occipital region and back of NC/Nga mouse (9 to 11 weeks old), except for the negative control group, 3 times a week, 2 hours after the application of 4% SDS solution. Three weeks later, it was observed whether atopic dermatitis was induced by checking skin rash, erythema, cornification, or the like. Atopic dermatitis was induced in all groups except for the negative control group. For drug treatment and evaluation of therapeutic effect, mice were grouped into 12 groups, 6 oral administration groups and 6 topical application groups (each consisting of negative control group, positive control group, macelignan low conc. group, macelignan high conc. group, nutmeg extract low conc. group, and nutmeg extract high conc. group), with n=5 per cage. […] Transepidermal water loss (TEWL), skin hydration and erythema index were measured one day before the end of the test. […]
Prior to the end of the experiment, the lesions of the mice were photographed. The change of the skin lesion was evaluated visually.

[3] = system: edemas of the rat ears induced by TPA; assay: TPA-induced rat ear edema inhibition test; type: in vivo, Wistar rats; conditions: for Edema thickness: topical in acetone 30 min after TPA, measured after 8 hours
Description: The anti-inflammatory activity of the lignan compound isolated and purified in <Example 1> was tested in animal models. The anti-inflammatory activity was measured by edema inhibition test on rats. As the test animals, 5-week-old Wistar rats (DaeHan Biolink Co., Ltd, Korea) were used. The animals were provided with standard pellet forming rat feed (Cheiljedang Corporation, Korea) and given freely to feed and water. Also, the animals were housed in conditions of 12-hr light/12-hr dark cycle, temperature of 25±2° C. and humidity of 60±10%. Inflammation inducing agent TPA (12-O-tetradecanoylphorbol-13-acetate; Sigma) was dissolved in acetone to a concentration of 200 μg/mL. The edemas of the rat ears were induced by applying the TPA solution locally to each of the outer and inner faces of the ear in an amount of 10 μl/ear (4 μg/ear). The macelignan purified in <Example 1> and non-steroidal anti-inflammatory drug indomethacin as a control substance were dissolved in acetone and used in amounts of 20, 200 and 2000 μg/ear. Each of the macelignan and the indomethacin was applied locally to the rat ears at 30 minutes after treatment with TPA. A control group was locally applied with acetone. The thickness of the rat ears was measured with a caliper 8 hours after treatment with each of the substances. An increase in the ear thickness in the group treated with the sample was compared to that of the group untreated with the sample, and inflammation inhibitory effect was measured by calculating percent edema inhibition.

[4] = system: RAW264.7 cells; assay: MTT cytotoxicity assay on RAW264.7 cells; type: cell-based; conditions: macelignan 1-20 μM, 24 hours
Description: In order to examine the effect of macelignan obtained in <Example 1> on the production of inflammatory response mediators, the macrophage RAW264.7 cell line was used. The macrophage RAW264.7 cell line (ATCC TIB-71) was purchased from American Tissue Culture Collection (Rockville, Md., USA). The cell line was cultured in DMEM (Dulbecco's Modified Eagle's Medium, Gibco, USA) supplemented with 10% heat inactivated FBS (fetal bovine serum, Gibco, USA), 100 U/ml penicillin G and 100 μg/ml streptomycin, in a 5% CO2 incubator at 37° C. In order to examine the effect of the inventive macelignan on the viability of RAW 264.7 cells, analysis was performed based on the reduction of MTT changed into a purple formazan product by mitochondrial dehydrogenase (Hayon T. et al., Leuk. Lymphoma. 44(11): 1957-1962, 2003). 1×10^6 cells/ml of RAW264.7 cells were inoculated into RPMI 1640 medium, and after 6 hours, were treated with the inventive macelignan at concentrations up to 1-80 μM/ml. After 24 hours, the viability of the cells was measured by the MTT assay.

[5] = Toxicity in oral administration to rats; conditions: rat, in vivo, read-out: 50% lethality (LD50)
Description: The inventive lignan compound was tested for toxicity in oral administration to rats, and as a result, it was observed that the 50% lethality (LD50) was more than 2,000 mg/kg.

## COc1cc(C[C@H](C)[C@H](C)Cc2ccc3c(c2)OCO3)ccc1O (single isomer, unassigned) [macelignan]
[1]
  proliferation of T cells: no effect
[2]; oral administration 50 and 150 mg/kg
  clinical visual evaluation of skin lesion: remarkable decrease in erythema/hemorrhage, dryness/scarring, edema, excoriation/erosion and lichenification and improvement in atopic dermatitis
[2]; topical application 20 and 60 mg/kg
  clinical visual evaluation of skin lesion: remarkable decrease in erythema/hemorrhage, dryness/scarring, edema, excoriation/erosion and lichenification and improvement in atopic dermatitis
[3]; dose 20 μg/ear
  Edema inhibition: 36.7%
  Edema thickness: 157 ± 9 μm
[3]; dose 200 μg/ear
  Edema inhibition: 60.5%
  Edema thickness: 98 ± 6 μm
[3]; dose 2000 μg/ear
  Edema inhibition: 79.0%
  Edema thickness: 52 ± 4 μm
[3]; local application on rat ears
  percent edema inhibition compared with indomethacin: higher than that of currently commercially available anti-inflammatory drug indomethacin
  rat edema induced by TPA (result in words): inhibited the formation of edema in a concentration-dependent manner
[4]
  viability of the RAW264.7 cells: no significant effect
[5]
  LD50: > 2000 mg/kg
